What was measured:
human BChE [1] = target: T1, human BChE (Homo sapiens, UniProt P06276)
CBDP-phosphonylated BChE = CBDP-phosphonylated BChE (Homo sapiens, UniProt P06276); type: biochemical; settings: pH 8
recombinant human AChE = settings: pH 8; cited from earlier work
CBDP-phosphonylated AChE = CBDP-phosphonylated AChE (Homo sapiens, UniProt P22303); type: biochemical; settings: pH 8
[2] = pH 8
rat brain AChE = settings: pH 7.4; cited from earlier work
human AChE = human AChE (Homo sapiens, UniProt P22303); type: biochemical
paraoxonase 1 = settings: cited from earlier work
human BChE [3] = target: T1, human BChE; settings: pH 8; cited from earlier work
BChE = settings: cited from earlier work

Chain of human AChE (P22303 32-614): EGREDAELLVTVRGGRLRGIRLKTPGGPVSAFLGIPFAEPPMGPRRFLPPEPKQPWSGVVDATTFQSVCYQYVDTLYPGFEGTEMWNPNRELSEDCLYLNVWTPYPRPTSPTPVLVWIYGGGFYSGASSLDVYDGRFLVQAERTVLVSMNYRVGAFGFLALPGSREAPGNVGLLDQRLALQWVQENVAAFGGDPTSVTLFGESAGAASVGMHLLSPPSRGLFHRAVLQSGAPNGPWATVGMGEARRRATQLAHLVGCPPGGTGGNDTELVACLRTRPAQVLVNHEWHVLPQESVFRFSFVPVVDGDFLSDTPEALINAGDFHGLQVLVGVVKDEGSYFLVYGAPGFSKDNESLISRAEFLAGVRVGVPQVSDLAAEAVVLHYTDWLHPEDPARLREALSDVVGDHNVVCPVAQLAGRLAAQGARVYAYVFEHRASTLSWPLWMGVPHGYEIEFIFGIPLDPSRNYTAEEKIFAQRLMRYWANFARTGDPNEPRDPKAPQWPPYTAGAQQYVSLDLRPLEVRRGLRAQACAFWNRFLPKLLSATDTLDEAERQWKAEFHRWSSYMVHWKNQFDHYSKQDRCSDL
T1 sequence (P06276 29-602): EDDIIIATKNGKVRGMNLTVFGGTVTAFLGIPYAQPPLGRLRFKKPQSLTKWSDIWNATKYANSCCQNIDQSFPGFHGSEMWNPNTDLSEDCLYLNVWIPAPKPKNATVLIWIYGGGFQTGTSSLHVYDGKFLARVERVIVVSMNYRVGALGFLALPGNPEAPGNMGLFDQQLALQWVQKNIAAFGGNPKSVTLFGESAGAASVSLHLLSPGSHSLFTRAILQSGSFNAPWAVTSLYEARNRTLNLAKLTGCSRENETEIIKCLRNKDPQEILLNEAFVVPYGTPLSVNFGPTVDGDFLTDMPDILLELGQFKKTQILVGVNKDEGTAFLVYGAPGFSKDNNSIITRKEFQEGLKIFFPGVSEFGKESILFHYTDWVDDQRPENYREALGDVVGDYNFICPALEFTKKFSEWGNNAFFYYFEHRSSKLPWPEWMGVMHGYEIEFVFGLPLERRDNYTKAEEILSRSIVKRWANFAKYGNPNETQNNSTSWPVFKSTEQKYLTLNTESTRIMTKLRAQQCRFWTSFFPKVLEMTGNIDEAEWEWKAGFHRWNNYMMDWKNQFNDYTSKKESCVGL
Chain of CBDP-phosphonylated AChE (P22303 32-614): as the sequence (P22303 32-614) above
Chain of CBDP-phosphonylated BChE (P06276 29-602): as the sequence (P06276 29-602) above

Molecule	K'I, dissociation constant of the Michaelis complex, BChE form E′ (human BChE [1]) [nM]	ki values for BChE (both forms) (human BChE [1])	slow phase reactivity of hBChE (form E′) relative to hAChE (form E′) (human BChE [1]) [fold]	kp, phosphorylation rate constant, BChE form E (kp=ki.KI) (human BChE [1]; human) [min⁻¹]	Ki (human BChE [1]; read-out: KI, dissociation constant of the Michaelis complex, BChE form E) [nM]	time to loss of reactivatibility (aging) following inhibition (CBDP-phosphonylated BChE)	bimolecular rate constant of inhibition (recombinant human AChE) [M⁻¹ s⁻¹]	time to loss of reactivatibility (aging) following inhibition (CBDP-phosphonylated AChE)	hydrolysis rate [2] [min⁻¹]	bimolecular rate constant of inhibition (rat brain AChE) [M⁻¹ s⁻¹]	K'I, dissociation constant of the Michaelis complex, AChE form E′ (human AChE) [µM]	kobs, fast phase of inhibition (independent of CBDP concentration) (human AChE) [min⁻¹]	Ki (human AChE; read-out: KI, dissociation constant of the Michaelis complex, AChE form E) [nM]	reaction with paraoxonase 1 (paraoxonase 1)	bimolecular rate constant of inhibition (human BChE [3]) [M⁻¹ s⁻¹]	ki, reactivity with BChE (BChE) [M⁻¹ s⁻¹]
Cc1ccccc1OP1(=O)OCc2ccccc2O1 (centres unmarked) [CBDP, 2-(o-cresyl)-4H-1,3,2-benzodioxaphosphoran-2-one]	> 10	10^7–10^8 M^−1 min^−1	235±110	> 1.5	> 10	less than 15 s	35	less than 15 s	0.0126	18.3	> 5.5	0.37 ± 0.15	< 100	does not react	330	–
CCOP(=O)(OCC)Oc1cc(C)nc(C(C)C)n1 [diazoxon]	–	–	–	–	–	–	–	–	–	–	–	–	–	–	–	1.28e+06
chlorpyrifos-oxon	–	–	–	–	–	–	–	–	–	–	–	–	–	–	–	2.83e+07

Source: article PMC3118852 (Chemical research in toxicology, 2011)
